Common to all, as to assay type: cell-based
Data set [1] deals with N1E and R3 cells. The data set is described as follows: Camptothecin-induced apoptosis, LIVE/DEAD staining. The conditions noted are these: Camptothecin 10 μM, 18 h, no peptide. The method, then: (§1) N1E and R3 ([33-10ras3] (ATCC® CRL-2764™)) cells were grown to about 80% of confluency in 6-well plates covered with D-poly-lysine. Peptides (500 nM or 10 µM) were added to the cells 1 h before treatments. The tested apoptogenic treatments were: Staurosporine (100 nM, 18 h), serum withdraw (20 days for N1E cells and 5 days for R3 cells), heat shock (43 °C, 1 h plus overnight recovery), Camptothecin (10 μM, 18 h), H2O2 (100 μM, 18 h). After the treatment the cells were carefully washed with PBS and stained simultaneously with Calcein A and Ethidium homodimer-1 (LIVE/DEAD® Viability/Cytotoxicity Kit, LifeTechnologies) for 30 min at room temperature. Cells were photographed in an inverted microscope immediately after staining. Percentage of survived cells was calculated from 3 randomly selected fields of view; average cell death rate ± SEM was calculated using GraphPad Prism (version 6.0 h for MacOS, GraphPad Software, La Jolla, USA). Antibodies specific to cleaved Caspase-3 (Asp175) (Rabbit monoclonal 5A1E, CST) were used to visualize Caspase-3 activation in N1E cells by Western blotting.

Data set [2] has as its system N1E cells. Nature of the data set: MALDI-TOF analysis of lysates from peptide-loaded cells. The conditions noted are these: 500 nM peptide, 30 min at 37 °C, Triton X-100 lysate after trichloroacetic acid sedimentation, not quantitative. How it is done: About 10^6 cells (N1E cells) were exposed to 500 nM of DL18 peptide in normal culture media for 30 min at 37 °C. After exposure the cells were washed twice with PBS, lyzed with 1% Triton X-100 in distilled water and the proteins were sedimented with equal volume of 40% trichloroacetic acid. After centrifugation (9000g, 20 min) 20 μl of supernatant was applied on MALDI plate, mixed with solution of 2,5-dihydroxybenzoic acid and subjected for MALDI-TOF analysis.

For data set [3], the system named is N1E and R3 cells. Nature of the data set: Hydrogen peroxide induced apoptosis, LIVE/DEAD staining. To be noted: H2O2 100 μM, 18 h, cells untreated with peptides; average ± SEM. The method, then: as §1
The next data set concerns R3 cells. The data set is described as follows: Staurosporine-induced cell death, LIVE/DEAD staining. To be noted: Staurosporine 100 nM, no peptide, average ± SEM. The method, then:
as §1

Data set [4] relates to N1E cells. The description is as above. The conditions noted are these: overnight exposure to 100 nM Staurosporine, no peptide, average ± SEM. How it is done:
as §1

This note sets out measurements from publication PMC6642484, “Cell penetrating caspase substrates promote survival of the transplanted cells” (BMC Research Notes, 2019).

Where a SMILES comes first, the peptide text is derived from it.

As for `CC[C@@]1(O)C(=O)OCc2c1cc1n(c2=O)Cc2cc3ccccc3nc2-1` [Camptothecin], in the data set on N1E and R3 cells [1], the apoptosis induction entry is given as “induces apoptosis in limited number of cells”. Turning to `CC[C@@H](C)[C@@H](NC(=O)[C@@H](CCC(=O)O)NC(=O)[C@H](NC(=O)[C@@H](CC(=O)O)NC(=O)[C@@H](CO)NC(=O)CNC(=O)[C@H](N)[C@H](C)O)[C@H](C)O)C(=O)NCC(=O)N[C@@H](CCCNC(=N)N)C(=O)N[C@@H](CCCCN)C(=O)N[C@@H](CCCCN)C(=O)N[C@@H](CCCNC(=N)N)C(=O)N[C@@H](CCCNC(=N)N)C(=O)N[C@@H](CCC(N)=O)C(=O)N[C@@H](CCCNC(=N)N)C(=O)N[C@@H](CCCNC(=N)N)C(=O)N[C@@H](CCCNC(=N)N)C(=O)NCC(=O)O` [DL18] (HELM PEPTIDE1{[dT].G.[dS].[dD].[dT].[dE].[dI].G.R.K.K.R.R.Q.R.R.R.G}$$$$V2.0), the “dynamics of cellular catabolism of the peptide (prevalence of non-metabolized m/z 2158 peak)” value with N1E cells [2] was “not considerable”. In the case of `OO` [H2O2, hydrogen peroxide], the dead cells in the data set on N1E and R3 cells [3] amounted to 84.8 ± 4.28%. As for `CN[C@@H]1C[C@H]2O[C@@](C)([C@@H]1OC)n1c3ccccc3c3c4c(c5c6ccccc6n2c5c31)C(=O)NC4` [Staurosporine], the dead cells with R3 cells is reported as 15.33 ± 3.76%. The cell death in the data set on N1E cells [4] is given as 89.67 ± 5.04%.
